From US5597703A, “Methods for determing cholesterol oxidase activity in an aqueous test sample, determining whether a test compound is capable of inhibiting cholesterol oxidase activity and determining the degree of cholesterol oxidase inhibitory activity” (priority 1994, dated 1997)

Test system: cholesterol oxidase
Test: estimating the toxicity of chemical compounds by presence or absence of sterol domain fade-out in a monolayer on cholesterol oxidase aqueous solution
Type: biochemical
Conditions: cholesterol oxidase 5×10^-3 unit/ml
[1] = 1 mM test compound, monolayer DMPC 0.68 mM / cholesterol 0.3 mM / NBD-PC 0.02 mM

Procedure: In the first embodiment of the method for estimating the toxicity of chemical compounds, there is used cholesterol oxidase HEPES buffer solution of 5×10^-3 unit/ml as the cholesterol oxidase aqueous solution 12. Herein, HEPES means N-2-hydroxyethylpiperazine-N'-2-ethane sulfonic acid which has 0.1 of ionic strength and 7.45 of pH. […] As the monolayer spread solution 13, there is used a solution consisting of 0.68 mM of DMPC (L-α-dimyristoylphosphatidylcholine), 0.3 mM of cholesterol and 0.02 mM of fluorescent dye labeled phospholipid NBD-PC (1-palmitoyl-2-[12-[(7-nitro-2-1,3-benzoxadiazol-4-yl) amino]dodecanoyl]phosphatidylcholine) chloroform. The monolayer spread solution 13 is dropped in the amount of 9.4 ml thereof onto a surface (42.6 cm^2) of the cholesterol oxidase aqueous solution 12 in which 1 mM of zinc chloride is dissolved, and then there is immediately formed a monolayer on the surface.
In the second embodiment, there is used cholesterol oxidase HEPES buffer solution of 5×10^-3 unit/ml as the cholesterol oxidase aqueous solution 12. In the HEPES solution is dissolved 1 mM of calcium chloride the toxicity of which is to be estimated. As the monolayer spread solution 13, there is used a solution consisting of 0.68 mM of DMPC (L-α-dimyristoylphosphatidylcholine), 0.3 mM of cholesterol and 0.02 mM of fluorescent dye labeled phospholipid NBD-PC (1-palmitoyl-2-[12-[(7-nitro-2-1,3-benzoxadiazol-4-yl)amino]dodecanoyl]phosphatyzircoline) chloroform. Similarly to the first embodiment, the monolayer spread solution 13 is dropped onto a surface of the cholesterol oxidase aqueous solution 12, and then there is immediately formed a monolayer on the surface.
In the third embodiment, there is used cholesterol oxidase HEPES buffer solution of 5×10^-3 unit/ ml as the cholesterol oxidase aqueous solution 12. […] As the monolayer spread solution 13, there is used a solution consisting of 0.68 mM of DPPC (L-α-dipalmitoylphosphatidylcholine), 0.3 mM of dihydrocholesterol and 0.02 mM of fluorescent dye labeled phospholipid NBD-PE (1-palmitoyl-2-[12-[(7-nitro-2-1,3-benzoxadiazol-4-yl) amino]dodecanoyl]phosphatidylethanolamine) chloroform. Similarly to the first embodiment, there is formed a monolayer on a surface of the cholesterol oxidase aqueous solution 12 by dropping the monolayer spread solution 13 as above mentioned on the surface.
In the fourth embodiment, there is used cholesterol oxidase HEPES buffer solution of 5×10^-3 unit/ml as the cholesterol oxidase aqueous solution 12. […] As the monolayer spread solution 13, there is used a solution consisting of 0.68 mM of DPPE (L-α-tdipalmitoylphosphatidylethanolamine), 0.3 mM of pregnenolone and 0.02 mM of fluorescent dye labeled phospholipid TR-DPPE (N-(texasredsulfonyl)-L-α-dipalmitoylphosphatidylethanolamine) chloroform.

## CCCCCCCCCCCCOS(=O)(=O)[O-].[Na+] [SDS, sodium dodecyl sulfate]
0.1 mM test compound, monolayer DPPE 0.68 mM / pregnenolone 0.3 mM / TR-DPPE 0.02 mM
  toxicity to cholesterol oxidase (sterol domain fade-out 30 minutes after monolayer formation): has the toxicity to cholesterol oxidase

## [Ca+2].[Cl-].[Cl-] [calcium chloride]
[1]
  toxicity to cholesterol oxidase (sterol domain fade-out 30 minutes after monolayer formation): not toxic to cholesterol oxidase

## [Cl][Hg][Cl] [mercury (II) chloride]
1 mM test compound, monolayer DPPC 0.68 mM / dihydrocholesterol 0.3 mM / NBD-PE 0.02 mM
  toxicity to cholesterol oxidase (sterol domain fade-out 30 minutes after monolayer formation): has the toxicity to cholesterol oxidase

## [Cl-].[Cl-].[Zn+2] [zinc chloride]
[1]
  toxicity to cholesterol oxidase (sterol domain fade-out 30 minutes after monolayer formation): toxic to cholesterol oxidase
